In US20250085300A1, “STABILITY-ENHANCING COMPOSITIONS AND METHODS OF PREPARING COMPOUNDS” (FOGHORN THERAPEUTICS INC., priority 2021, published 2025):
“Also recorded” adds a separate entry of the source.

Assays:
[1] = system: non-synovial control cancer cell lines (RD, HCT116, and Calu6); experiment: Growth of non-synovial control cancer cell lines, crystal violet day 14 (Example 3); assay type: cell-based; conditions: daily treatment
Method: (§1) Procedure: Cells were seeded into 6-well or 12-well plates and were treated daily with a BRD9 degrader (Compound 1), a bromo-domain BRD9 binder (Compound 2), E3 ligase binder (lenalidomide), DMSO, or staurosporin (positive control for cell killing), at indicated concentrations. The number of cells was optimized for each cell line. Growth media was refreshed every 5 days. By day 14, medium was removed, cells were washed with PBS, and stained using 500 μL of 0.005% (w/v) crystal violet solution in 25% (v/v) methanol for at least 1 hour at room temperature. Subsequently plates were scanned on an Odyssey CLx Imaging system.

[2] = system: synovial sarcoma cell lines (SYO1, Yamato, HS-SY-II, and ASKA); experiment: Growth of synovial sarcoma cell lines (Example 2: IncuCyte confluency, crystal violet, colonies); assay type: cell-based; conditions: 1 μM or indicated concentrations
Method: (§2) Cells were treated with DMSO or the BRD9 degrader, Compound 1, at indicated concentrations, and proliferation was monitored from day 7 to day 14 by measuring confluency over time using an IncuCyte live cell analysis system (FIG. 4). Growth medium and compounds were refreshed every 3-4 days.
(§3) Cells were seeded into 12-well plates and treated with DMSO, 1 μM BRD9 inhibitor, Compound 2 (also known as BI-7273, see Martin et al, J Med Chem. 59 (10): 4462-4475 (2016); see structure of compound 2 below), or 1 μM BRD9 degrader, Compound 1.
(§4) The number of cells was optimized for each cell line. Growth medium and compounds were refreshed every 3-5 days. SYO1, Yamato, A549, 293T and HS-SY-II cells were fixed and stained at day 11. ASKA cells were fixed and stained at day 23. Staining was done by incubation with crystal violet solution (0.5 g Crystal Violet, 27 ml 37% Formaldehyde, 100 mL 10×PBS, 10 mL Methanol, 863 dH20 to 1 L) for 30 min followed by 3×washes with water and drying the plates for at least 24 h at room temperature. Subsequently plates were scanned on an Odyssey CLx Imaging system (FIG. 5).
(§5) Cells were seeded into 96-well ultra-low cluster plate (Costar, #7007) in 200 μL complete media and treated at day 2 with DMSO, Staurosporin, or BRD9 degrader, Compound 1, at indicated doses (FIG. 2C). Media and compounds were changed every 5 d and cell colonies were imaged at day 14.

[3] = system: synovial sarcoma cell lines (SYO1, HS-SY-II, and ASKA); experiment: Growth of synovial sarcoma cell lines, crystal violet day 14 (Example 3); assay type: cell-based; conditions: daily treatment
Method: as §1

[4] = system: non-synovial control cancer cell lines (293T, A549, G401); experiment: Growth of non-synovial control cancer cell lines (Example 2); assay type: cell-based
Method: as §2, §3, §4, §5

BRD9 = target: T1, BRD9 (Homo sapiens, UniProt Q9H8M2); experiment: BRD9 western blot in synovial sarcoma tumors in vivo (Example 11); set-up: species or system mice; conditions: 1 mg/kg i.p. for 4 weeks
T1 construct: Tumors were lysed with 1×RIPA lysis buffer; from tissue; host or cells: SYO-1 xenograft tumours from BALB/c Nude mice
T1 sequence (Q9H8M2 1-597): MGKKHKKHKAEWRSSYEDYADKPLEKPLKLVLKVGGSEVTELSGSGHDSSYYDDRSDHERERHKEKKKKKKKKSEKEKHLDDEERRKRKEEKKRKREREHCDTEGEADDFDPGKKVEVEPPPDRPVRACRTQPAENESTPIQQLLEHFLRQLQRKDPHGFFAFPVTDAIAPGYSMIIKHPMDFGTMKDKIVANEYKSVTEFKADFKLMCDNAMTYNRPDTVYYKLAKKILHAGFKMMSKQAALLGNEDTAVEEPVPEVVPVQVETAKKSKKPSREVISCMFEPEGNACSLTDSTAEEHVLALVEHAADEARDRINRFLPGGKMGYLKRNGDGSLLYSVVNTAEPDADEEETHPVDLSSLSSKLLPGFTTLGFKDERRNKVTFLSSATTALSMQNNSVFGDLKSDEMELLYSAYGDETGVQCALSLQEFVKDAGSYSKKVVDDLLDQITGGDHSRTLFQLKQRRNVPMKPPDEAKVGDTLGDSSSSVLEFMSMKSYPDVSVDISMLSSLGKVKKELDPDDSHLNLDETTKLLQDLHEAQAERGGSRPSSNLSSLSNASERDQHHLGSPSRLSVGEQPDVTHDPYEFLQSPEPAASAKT
Method: Method: Mice were treated with D1, 1 mg/kg, i.p. for 4 weeks. Mice were then euthanized, and tumors were collected at 8 hours, 72 hours, and 168 hours post last dose. Tumors were lysed with 1x RIPA lysis buffer (Boston BioProducts, BP-115D) with protease and phosphatase protein inhibitor (Roche Applied Science #04906837001 & 05892791001). Equal amounts of lysate (30 μg) were loaded in 4-12% Bis-Tris Midi Protein Gels in 1×MOPS buffer; samples ran at 120 V for 120 minutes. Protein was transferred to membrane with TransBlot at 250 mA for 150 minutes, and then membranes were blocked with Odyssey blocking buffer for 1 hour at room temperature. Membranes were hybridized overnight in cold room with primary antibodies. Images acquired using Li-COR imaging system (Li-COR Biotechnology, Lincoln, Nebraska).

[5] = target: T2, Nanoluciferase-BRD9 fusion protein (Homo sapiens, UniProt Q9H8M2); experiment: SYO1 BRD9 NanoLuc degradation assay; assay type: cell-based; conditions: 6 hours
T2 construct: expressed in transfected cells
Method: Procedure: A stable SYO-1 cell line expressing 3×FLAG-NLuc-BRD9 was generated. On day 0 cells were seeded in 30 μL media into each well of 384-well cell culture plates. The seeding density was 8000 cells/well. On day 1, cells were treated with 30 nL DMSO or 30 nL of 3-fold serially DMSO-diluted compounds (10 points in duplicates with 1 μM as final top dose). Subsequently plates were incubated for 6 hours in a standard tissue culture incubator and equilibrated at room temperature for 15 minutes. Nanoluciferase activity was measured by adding 15 μL of freshly prepared Nano-Glo Luciferase Assay Reagent (Promega N1130), shaking the plates for 10 minutes and reading the bioluminescence using an EnVision reader.
Results: The Inhibition % was calculated using the following formula: % Inhibition=100×(LumHC−LumSample)/(LumHC−LumLC). DMSO treated cells are employed as High Control (HC) and 1 μM of a known BRD9 degrader standard treated cells are employed as Low Control (LC).

SYO1 cells [6] = experiment: Apoptosis assay (Annexin V-FITC); assay type: cell-based; conditions: 200 nM or 1 μM, 8 days, compared to DMSO controls
Method: (§6) Procedure: SYO1 cells were treated for 8 or 13 days with DMSO, a BRD9 degrader (Compound 1) at 200 nM or 1 μM, or an E3 ligase binder (lenalidomide) at 200 nM. Compounds were refreshed every 5 days. Cell cycle analysis was performed using the Click-iT™ Plus EdU Flow Cytometry Assay (Invitrogen). The apoptosis assay was performed using the Annexin V-FITC Apoptosis Detection Kit (Sigma A9210). Assays were performed according to the manufacturer's protocol.

SYO1 cells [7] = experiment: Cell cycle analysis (Click-iT Plus EdU flow cytometry); assay type: cell-based; conditions: 200 nM or 1 μM, 8 or 13 days, compared to DMSO and lenalidomide
Method: as §6

T2 sequence (Q96SW2 whole entry partner, one chain of several, the tested form may be a part): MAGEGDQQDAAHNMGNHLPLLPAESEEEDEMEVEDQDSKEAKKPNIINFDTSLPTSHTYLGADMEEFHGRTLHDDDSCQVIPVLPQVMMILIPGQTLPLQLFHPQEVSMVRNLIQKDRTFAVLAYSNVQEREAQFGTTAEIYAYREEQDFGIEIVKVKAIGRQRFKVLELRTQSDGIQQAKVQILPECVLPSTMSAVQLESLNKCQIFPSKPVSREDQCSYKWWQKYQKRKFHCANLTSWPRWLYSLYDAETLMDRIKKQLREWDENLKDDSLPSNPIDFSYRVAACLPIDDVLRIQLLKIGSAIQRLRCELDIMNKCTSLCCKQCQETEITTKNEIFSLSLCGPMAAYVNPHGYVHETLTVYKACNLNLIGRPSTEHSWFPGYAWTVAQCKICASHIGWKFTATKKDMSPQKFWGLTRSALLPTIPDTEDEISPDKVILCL

time after dose with complete degradation of BRD9 (BRD9) | BRD9 level in tumor (western blot) (BRD9; tumors 8, 72, 168 hours post last dose) | IC50 [5] [nM] | SMILES | inhibition of cell growth [1] | inhibition of cell growth [2] | inhibition of cell growth [3] | inhibition of cell growth [4] | numbers of early- and late-apoptotic cells (SYO1 cells [6]) | numbers of cells in the S-phase of the cell cycle (SYO1 cells [7])
– | – | – | COc1cc(-c2cn(C)c(=O)c3cnccc23)cc(OC)c1CN(C)C [Compound 2] | did not result in inhibition of the growth | inhibition of the growth of the cells | inhibition of the growth of the cells | does not result in inhibition of the growth | – | –
up to 168 hours | complete degradation | 0.13 | COc1cc(-c2cn(C)c(=O)c3cnc(N4CCC4)cc23)cc(OC)c1CN1CCC(CN2CCC3(CC2)CN(c2ccc4c(c2)C(=O)N(C2CCC(=O)NC2=O)C4)C3)CC1 (racemic) [Compound D1, 3-[6-(7-[[1-([4-[6-(azetidin-1-yl)-2-methyl-1-oxo-2,7-naphthyridin-4-yl]-2,6-dimethoxyphenyl]methyl)piperidin-4-yl]methyl]-2,7-diazaspiro[3.5]nonan-2-yl)-1-oxo-3H-isoindol-2-yl]piperidine-2,6-dione] | – | – | – | – | – | –
– | – | – | COc1cc(-c2cn(C)c(=O)c3cnccc23)cc(OC)c1CN(C)CC(=O)NCCOCCOCCNc1cccc2c1C(=O)N(C1CCC(=O)NC1=O)C2=O (stereo not shown) [Compound 1] | did not result in inhibition of the growth | inhibition of the growth of the cells | inhibition of the growth of the cells; also recorded: most significant growth inhibition | does not result in inhibition of the growth | increased numbers of early- and late-apoptotic cells | reduced numbers of cells in the S-phase
